The record followed here is ChEMBL document CHEMBL1765070, “Structure-based design of potent and selective 3-phosphoinositide-dependent kinase-1 (PDK1) inhibitors” (J Med Chem, 2011).

Each structure is given as a SMILES string.

The target of assay [1] is T1, 3-phosphoinositide-dependent protein kinase 1 (Homo sapiens, UniProt O15530).
T1 sequence (O15530 whole entry): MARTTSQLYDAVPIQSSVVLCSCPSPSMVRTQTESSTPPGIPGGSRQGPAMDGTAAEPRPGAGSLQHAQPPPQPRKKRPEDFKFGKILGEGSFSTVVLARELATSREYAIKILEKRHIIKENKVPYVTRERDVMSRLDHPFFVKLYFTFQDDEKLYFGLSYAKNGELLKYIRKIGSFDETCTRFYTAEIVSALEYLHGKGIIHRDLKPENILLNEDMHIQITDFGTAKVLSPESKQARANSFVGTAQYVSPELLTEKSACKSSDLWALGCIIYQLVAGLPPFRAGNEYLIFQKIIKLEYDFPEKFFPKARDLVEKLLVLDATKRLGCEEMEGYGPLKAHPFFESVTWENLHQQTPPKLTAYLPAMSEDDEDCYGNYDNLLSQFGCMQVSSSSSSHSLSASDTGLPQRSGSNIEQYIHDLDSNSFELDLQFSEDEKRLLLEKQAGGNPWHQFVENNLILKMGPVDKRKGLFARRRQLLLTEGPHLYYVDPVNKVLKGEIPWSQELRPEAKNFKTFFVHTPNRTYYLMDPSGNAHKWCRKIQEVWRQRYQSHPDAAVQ
The assay can be described thus: Inhibition of PDK1.

Another assay concerns the target T2, Aurora kinase A (Homo sapiens, UniProt O14965).
T2 sequence (O14965 whole entry): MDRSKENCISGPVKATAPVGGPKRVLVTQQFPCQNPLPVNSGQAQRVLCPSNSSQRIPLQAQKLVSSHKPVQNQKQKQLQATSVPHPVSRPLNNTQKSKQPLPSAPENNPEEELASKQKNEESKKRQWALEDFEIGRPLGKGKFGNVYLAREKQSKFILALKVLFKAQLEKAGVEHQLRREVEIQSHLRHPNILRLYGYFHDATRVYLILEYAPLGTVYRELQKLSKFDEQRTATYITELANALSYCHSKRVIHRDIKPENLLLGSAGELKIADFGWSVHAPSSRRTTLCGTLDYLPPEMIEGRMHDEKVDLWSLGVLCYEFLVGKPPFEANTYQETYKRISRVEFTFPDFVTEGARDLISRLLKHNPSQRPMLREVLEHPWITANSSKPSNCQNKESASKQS
Kind of assay: Inhibition of aurora A.

The target of assay [2] is Rho-associated protein kinase 1 (Homo sapiens, UniProt Q13464). The assay can be described thus: Inhibition of ROCK1.
Sequence of Rho-associated protein kinase 1 (Q13464 whole entry): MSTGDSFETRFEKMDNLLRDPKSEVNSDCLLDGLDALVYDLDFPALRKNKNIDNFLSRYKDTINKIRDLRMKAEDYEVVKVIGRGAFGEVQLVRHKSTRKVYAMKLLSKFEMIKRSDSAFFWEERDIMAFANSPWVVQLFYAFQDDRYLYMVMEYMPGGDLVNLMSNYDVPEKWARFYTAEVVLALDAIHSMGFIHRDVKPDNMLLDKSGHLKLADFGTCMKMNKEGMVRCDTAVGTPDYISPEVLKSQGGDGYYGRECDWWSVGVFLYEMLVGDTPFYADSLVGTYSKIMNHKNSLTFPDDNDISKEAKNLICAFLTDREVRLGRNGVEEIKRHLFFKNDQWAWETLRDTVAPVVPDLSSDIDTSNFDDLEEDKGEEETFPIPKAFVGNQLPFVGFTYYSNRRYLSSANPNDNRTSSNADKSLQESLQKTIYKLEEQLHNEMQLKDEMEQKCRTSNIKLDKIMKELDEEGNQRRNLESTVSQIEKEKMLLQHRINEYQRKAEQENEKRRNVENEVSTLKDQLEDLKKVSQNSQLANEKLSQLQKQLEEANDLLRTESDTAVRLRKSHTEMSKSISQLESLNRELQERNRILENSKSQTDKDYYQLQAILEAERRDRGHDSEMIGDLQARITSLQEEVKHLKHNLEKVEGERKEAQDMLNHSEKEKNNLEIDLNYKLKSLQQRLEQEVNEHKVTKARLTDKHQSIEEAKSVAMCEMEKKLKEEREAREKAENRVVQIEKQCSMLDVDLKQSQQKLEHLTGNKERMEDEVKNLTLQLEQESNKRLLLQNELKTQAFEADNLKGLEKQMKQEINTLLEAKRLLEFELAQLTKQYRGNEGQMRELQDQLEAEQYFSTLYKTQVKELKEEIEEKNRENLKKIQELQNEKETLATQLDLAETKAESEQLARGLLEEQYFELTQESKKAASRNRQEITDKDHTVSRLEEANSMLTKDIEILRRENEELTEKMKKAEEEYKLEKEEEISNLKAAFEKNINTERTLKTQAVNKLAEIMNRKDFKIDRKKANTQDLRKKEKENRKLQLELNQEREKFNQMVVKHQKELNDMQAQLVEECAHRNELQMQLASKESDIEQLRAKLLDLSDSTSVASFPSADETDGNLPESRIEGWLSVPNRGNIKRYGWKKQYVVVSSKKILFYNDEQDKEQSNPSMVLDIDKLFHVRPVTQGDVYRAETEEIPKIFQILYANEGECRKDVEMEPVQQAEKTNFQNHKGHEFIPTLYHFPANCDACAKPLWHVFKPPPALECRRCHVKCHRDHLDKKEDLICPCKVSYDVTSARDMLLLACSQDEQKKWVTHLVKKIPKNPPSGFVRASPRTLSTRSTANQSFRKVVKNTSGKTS
The target in the next assay is Aurora kinase B (Homo sapiens, UniProt Q96GD4). Kind of assay: Inhibition of aurora B.
Sequence of Aurora kinase B (Q96GD4 whole entry): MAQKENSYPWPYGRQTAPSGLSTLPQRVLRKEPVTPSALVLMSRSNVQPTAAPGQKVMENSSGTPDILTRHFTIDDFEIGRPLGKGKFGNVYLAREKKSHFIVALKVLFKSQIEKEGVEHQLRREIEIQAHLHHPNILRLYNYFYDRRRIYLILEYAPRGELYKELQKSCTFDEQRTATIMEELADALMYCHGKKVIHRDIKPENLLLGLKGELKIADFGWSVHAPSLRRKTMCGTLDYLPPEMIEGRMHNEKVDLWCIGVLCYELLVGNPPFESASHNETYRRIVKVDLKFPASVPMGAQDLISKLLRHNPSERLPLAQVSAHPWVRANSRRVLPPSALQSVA
For a further assay, the target named is T3, TGF-beta receptor type-1 (Homo sapiens, UniProt P36897).
T3 sequence (P36897 whole entry): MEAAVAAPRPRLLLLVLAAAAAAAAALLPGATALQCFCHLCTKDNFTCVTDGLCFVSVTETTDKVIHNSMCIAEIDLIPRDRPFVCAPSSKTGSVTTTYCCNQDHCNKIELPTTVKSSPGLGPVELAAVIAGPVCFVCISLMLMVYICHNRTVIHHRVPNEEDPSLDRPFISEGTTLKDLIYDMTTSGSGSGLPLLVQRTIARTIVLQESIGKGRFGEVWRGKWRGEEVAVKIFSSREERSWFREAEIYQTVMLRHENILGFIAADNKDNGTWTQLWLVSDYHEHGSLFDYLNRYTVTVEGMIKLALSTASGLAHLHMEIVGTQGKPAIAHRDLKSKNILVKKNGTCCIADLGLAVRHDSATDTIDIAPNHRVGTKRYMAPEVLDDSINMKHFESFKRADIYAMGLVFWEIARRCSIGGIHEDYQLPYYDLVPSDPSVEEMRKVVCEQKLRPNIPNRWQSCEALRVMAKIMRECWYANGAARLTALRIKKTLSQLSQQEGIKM
The assay can be described thus: Inhibition of ALK5. As to conditions: read-out: pIC50 (converted).

Regarding `CC(C)(C)OC(=O)NC1CCCN(c2cc(-c3ccc4c(N)n[nH]c4c3)nc(N)n2)C1` (racemic), the IC50 is 0.0501 µM in assay [1]; 1.26 µM at Aurora kinase A; over 10 µM in assay [2]; 0.398 µM against Aurora kinase B; over 10 µM at TGF-beta receptor type-1.
Consider `CCNc1nccc(-c2ccc3c(N)n[nH]c3c2)n1`, for which the IC50 in assay [1] was 7.94 µM.
For the compound `Nc1nc(-c2ccc3c(N)n[nH]c3c2)cc(N2CCCC(NC(=O)c3ccccc3)C2)n1` (racemic), the IC50 is 0.0631 µM in assay [1]; 1.26 µM on Aurora kinase A; over 10 µM in assay [2]; 0.0251 µM against Aurora kinase B; over 10 µM on TGF-beta receptor type-1.
Regarding `Nc1nccc(-c2ccc3c(N)n[nH]c3c2)n1`, the IC50 in assay [1] is 0.398 µM; against Aurora kinase A it was 0.398 µM; in assay [2] it was 1.58 µM; at TGF-beta receptor type-1, 1.58 µM.
With `Nc1nc(-c2ccc3c(N)[nH]nc3c2)cc(N2CCOCC2)n1`, the IC50 (at Aurora kinase A; in assay [2]; against Aurora kinase B; at TGF-beta receptor type-1) was over 10 µM each time.
On to `C[C@@H]1CC[C@H](NC(=O)OC(C)(C)C)CN1c1cc(-c2ccc3c(N)n[nH]c3c2)nc(N)n1`, for which the IC50 against Aurora kinase A is 2 µM; in assay [2], over 10 µM; against Aurora kinase B, 0.0501 µM; on TGF-beta receptor type-1 it was over 10 µM.
As for `CC(C)(C)OC(=O)N[C@H]1CCCN(c2cc(-c3ccc4c(N)n[nH]c4c3)nc(N)n2)C1`, the IC50 in assay [1] was 1 µM; at Aurora kinase A, 6.31 µM; in assay [2], over 10 µM; against Aurora kinase B, 0.316 µM; at TGF-beta receptor type-1 it was over 10 µM.
`CNc1nccc(-c2ccc3c(N)n[nH]c3c2)n1` had an IC50 in assay [1] of 1 µM.
`C[C@H]1CC[C@@H](NC(=O)OC(C)(C)C)CN1c1cc(-c2ccc3c(N)[nH]nc3c2)nc(N)n1` (racemic): the IC50 was 0.794 µM against Aurora kinase A, over 10 µM in assay [2], 0.158 µM on Aurora kinase B and over 10 µM at TGF-beta receptor type-1.
`CN(C)c1nccc(-c2ccc3c(N)n[nH]c3c2)n1`: in assay [1], the IC50 is 20 µM.
For the compound `Nc1nc(-c2ccc3c(N)n[nH]c3c2)cc(N2CCC[C@H](C(=O)NC3CCCCC3)C2)n1`, the IC50 was 0.0631 µM in assay [1]; over 10 µM on Aurora kinase A; 5.01 µM in assay [2]; 3.98 µM on Aurora kinase B; over 10 µM on TGF-beta receptor type-1.
Consider `C[C@@H]1CCCCN1c1cc(-c2ccc3c(N)n[nH]c3c2)nc(N)n1`, for which the IC50 was 0.126 µM in assay [1]; over 10 µM on Aurora kinase A; over 10 µM in assay [2]; 25.1 µM against Aurora kinase B; 7.94 µM on TGF-beta receptor type-1.
Take `C[C@H]1CC[C@@H](C(=O)Nc2ccccc2)CN1c1cc(-c2ccc3c(N)n[nH]c3c2)nc(N)n1`: the figures for the IC50 on Aurora kinase B and on TGF-beta receptor type-1 were 5.01 µM and over 10 µM, respectively.
Take `CC(C)[C@@H]1COCCN1c1cc(-c2ccc3c(N)n[nH]c3c2)nc(N)n1`: the IC50 in assay [1] is 0.2 µM; on Aurora kinase A, 12.6 µM; in assay [2] it was 15.8 µM; against Aurora kinase B, 7.94 µM; at TGF-beta receptor type-1, over 10 µM.
On to `Nc1nc(Nc2ccccc2)cc(-c2ccc3c(N)n[nH]c3c2)n1`, for which the IC50 was 0.02 µM in assay [1]; 0.2 µM against Aurora kinase A; 2.51 µM in assay [2]; 3.16 µM at Aurora kinase B; 0.0251 µM on TGF-beta receptor type-1.
With `Nc1nc(-c2ccccc2)cc(-c2ccc3c(N)n[nH]c3c2)n1`, the IC50 was 0.2 µM in assay [1]; 1.58 µM against Aurora kinase A; over 10 µM in assay [2]; 2 µM against Aurora kinase B; 3.16 µM on TGF-beta receptor type-1.
For the compound `CCNc1cc(-c2ccc3c(N)[nH]nc3c2)nc(N)n1`, the IC50 against Aurora kinase A was 2.51 µM; in assay [2], over 10 µM; against Aurora kinase B, 10 µM; on TGF-beta receptor type-1, 0.501 µM.
Regarding `Nc1nc(-c2ccc3c(N)n[nH]c3c2)cc(N2CCC[C@H](C(=O)NC3CCCC3)C2)n1`, the IC50 in assay [1] was 0.126 µM; at Aurora kinase A, over 10 µM; in assay [2] it was over 10 µM; against Aurora kinase B, over 10 µM; at TGF-beta receptor type-1 it was over 10 µM.
In the case of `CN(C)c1cc(-c2ccc3c(N)n[nH]c3c2)nc(N)n1`, the IC50 in assay [1] was 0.501 µM; at Aurora kinase A, over 10 µM; in assay [2], over 10 µM; at Aurora kinase B, over 10 µM; at TGF-beta receptor type-1, 5.01 µM.
Turning to `Nc1nc(-c2ccc3c(N)n[nH]c3c2)cc(N2CCO[C@@H](C(=O)Nc3ccccc3)C2)n1`, the IC50 was 1 µM in assay [1]; over 10 µM on Aurora kinase A; over 10 µM in assay [2]; over 10 µM on Aurora kinase B; over 10 µM at TGF-beta receptor type-1.
As to `Nc1nc(-c2ccc3c(N)n[nH]c3c2)cc(N2CCCCC2)n1`, the IC50 in assay [1] is 0.251 µM; against Aurora kinase A, over 10 µM; in assay [2], over 10 µM; at Aurora kinase B it was over 10 µM; at TGF-beta receptor type-1, over 10 µM.
In the case of `Cc1cc(-c2ccc3c(N)n[nH]c3c2)nc(N)n1`, the IC50 at Aurora kinase A was 3.98 µM; in assay [2], 3.98 µM; against Aurora kinase B it was 12.6 µM; at TGF-beta receptor type-1, 7.94 µM.
For `CC(C)Nc1cc(-c2ccc3c(N)n[nH]c3c2)nc(N)n1`, the IC50 in assay [1] was 0.126 µM; against Aurora kinase A it was 2 µM; in assay [2], over 10 µM; against Aurora kinase B, 15.8 µM; at TGF-beta receptor type-1, 0.501 µM.
For `Nc1nc(-c2ccc3c(N)n[nH]c3c2)cc(N2CCCC2)n1`, the IC50 in assay [1] was 0.251 µM; at Aurora kinase A it was over 10 µM; in assay [2], over 10 µM; at Aurora kinase B, over 10 µM; at TGF-beta receptor type-1 it was over 10 µM.
In the case of `Nc1nc(-c2ccc3c(N)[nH]nc3c2)cc(N2CCO[C@H](C(=O)Nc3ccccc3)C2)n1`, the IC50 was 1.26 µM against Aurora kinase A, 0.794 µM in assay [2], 3.16 µM against Aurora kinase B and over 10 µM on TGF-beta receptor type-1.
Regarding `C[C@@H]1CO[C@H](C(=O)Nc2ccccc2)CN1c1cc(-c2ccc3c(N)n[nH]c3c2)nc(N)n1`, the IC50 against Aurora kinase A was 0.2 µM; in assay [2], 0.158 µM; on Aurora kinase B it was 0.316 µM; on TGF-beta receptor type-1, over 10 µM.
`C[C@H]1CC[C@@H](NC(=O)OC(C)(C)C)CN1c1cc(-c2ccc3c(N)[nH]nc3c2)nc(N)n1`: the IC50 against Aurora kinase A is 0.501 µM; against Aurora kinase B, 1 µM.
As for `Nc1nc(NC2CCCC2)cc(-c2ccc3c(N)n[nH]c3c2)n1`, the IC50 at Aurora kinase A was 2.51 µM; in assay [2], 6.31 µM; against Aurora kinase B, 7.94 µM; on TGF-beta receptor type-1, 0.398 µM.
`CNc1cc(-c2ccc3c(N)n[nH]c3c2)nc(N)n1`: the IC50 in assay [1] is 0.0794 µM; on Aurora kinase A it was 3.16 µM; in assay [2], 7.94 µM; on Aurora kinase B it was 12.6 µM; on TGF-beta receptor type-1, 0.398 µM.
Take `CC[C@@H]1COCCN1c1cc(-c2ccc3c(N)n[nH]c3c2)nc(N)n1`: the IC50 was 5.01 µM on Aurora kinase A, over 10 µM in assay [2], over 10 µM on Aurora kinase B and over 10 µM at TGF-beta receptor type-1.
The compound `COc1nccc(-c2ccc3c(N)n[nH]c3c2)n1` had an IC50 in assay [1] of 12.6 µM.
Consider `C[C@@H]1COCCN1c1cc(-c2ccc3c(N)[nH]nc3c2)nc(N)n1`, for which the IC50 on Aurora kinase A was 12.6 µM; in assay [2], 15.8 µM; against Aurora kinase B, 25.1 µM; on TGF-beta receptor type-1, over 10 µM.
Take `C[C@H]1COCCN1c1cc(-c2ccc3c(N)n[nH]c3c2)nc(N)n1`: the IC50 against Aurora kinase A was over 10 µM; in assay [2], 15.8 µM; against Aurora kinase B, 25.1 µM; at TGF-beta receptor type-1, over 10 µM.
Take `C[C@@H]1CC[C@@H](C(=O)Nc2ccccc2)CN1c1cc(-c2ccc3c(N)n[nH]c3c2)nc(N)n1` (racemic): the IC50 in assay [2] was over 10 µM; at Aurora kinase B, 2 µM; at TGF-beta receptor type-1 it was over 10 µM.
In the case of `C[C@@H]1CC[C@H](C(=O)Nc2ccccc2)CN1c1cc(-c2ccc3c(N)[nH]nc3c2)nc(N)n1`, the values for the IC50 (in assay [2]; against Aurora kinase B; on TGF-beta receptor type-1) were 0.2 µM, 1 µM and 6.31 µM, respectively.
